The results in this text go back to ChEMBL document CHEMBL5034011, “Discovery and Optimization of a 4-Aminopiperidine Scaffold for Inhibition of Hepatitis C Virus Assembly” (J Med Chem, 2021).

The nature of series [1]: Kinetic aqueous solubility of compound by pION uSOL method at pH 7.4. As to conditions: buffer.
A short description of series [2]: Permeability of the compound by PAMPA method. As to conditions: for Papp: read-out: permeability. It is filed as ADME.
Series [3] is described as follows: Tmax in CD-1 mouse brain at 1 mg/kg. It is filed as ADME, organism-based.
Series [4] in a line: Cmax in CD-1 mouse liver at 1 mg/kg. The arrangement: dose 1 mg/kg. It is filed as ADME, organism-based.
A short description of series [5]: Tmax in CD-1 mouse plasma at 1 mg/kg. It is filed as ADME, organism-based.
Series [6] can be described thus: Cmax in CD-1 mouse brain at 1 mg/kg. It is filed as ADME, organism-based. On the set-up: dose 1 mg/kg.
A short description of series [7]: Ratio of AUClast in liver to plasma in CD-1 mouse at 1 mg/kg. It is filed as ADME, organism-based.
The nature of series [8]: Ratio of AUClast in brain to plasma in CD-1 mouse at 1 mg/kg. It is filed as ADME, organism-based.
Series [9] in a line: AUClast in CD-1 mouse liver at 1 mg/kg. It is filed as ADME, organism-based. On the set-up: time 0 - last, dose 1 mg/kg.
The nature of series [10]: Tmax in CD-1 mouse liver at 1 mg/kg. It is filed as ADME, organism-based.
Series [11] is described as follows: AUClast in CD-1 mouse plasma at 1 mg/kg. It is filed as ADME, organism-based. On the set-up: time 0 - last, dose 1 mg/kg.
Series [12] can be described thus: AUClast in CD-1 mouse brain at 1 mg/kg. It is filed as ADME, organism-based. The arrangement: time 0 - last, dose 1 mg/kg.
Series [13] can be described thus: Cmax in CD-1 mouse plasma at 10 mg/kg. It is filed as ADME, organism-based. On the set-up: dose 10 mg/kg.
Series [14] can be described thus: Tmax in CD-1 mouse brain at 10 mg/kg. It is filed as ADME, organism-based.
The nature of series [15]: AUClast in CD-1 mouse liver at 10 mg/kg. It is filed as ADME, organism-based. The arrangement: time 0 - last, dose 10 mg/kg.
The nature of series [16]: Tmax in CD-1 mouse plasma at 10 mg/kg. It is filed as ADME, organism-based.
The nature of series [17]: Ratio of AUClast in brain to plasma in CD-1 mouse at 10 mg/kg. It is filed as ADME, organism-based.
Series [18] is described as follows: Cmax in CD-1 mouse liver at 10 mg/kg. On the set-up: dose 10 mg/kg. It is filed as ADME, organism-based.
The nature of series [19]: Tmax in CD-1 mouse liver at 10 mg/kg. It is filed as ADME, organism-based.
The nature of series [20]: AUClast in CD-1 mouse plasma at 10 mg/kg. It is filed as ADME, organism-based. On the set-up: time 0 - last, dose 10 mg/kg.
Series [21] in a line: AUClast in CD-1 mouse brain at 10 mg/kg. It is filed as ADME, organism-based. The arrangement: time 0 - last, dose 10 mg/kg.
A short description of series [22]: Ratio of AUClast in liver to plasma in CD-1 mouse at 10 mg/kg. It is filed as ADME, organism-based.

≈ marks a conversion by molar mass, not a printed value.

In turn, `Cc1ccc(C2CC(N(Cc3ccc(Br)c(Cl)c3)C3CCOCC3)C2)cc1` (stereo not drawn) came in with a kinetic solubility in series [1] below 1 µg/mL. Besides, in [2], the Papp is below 6.4 ×10⁻⁶ cm/s.

`Cc1ccc([C@H]2C[C@@H](N(Cc3ccc(Br)c(Cl)c3)C3CCNCC3)C2)cc1` came in with a kinetic solubility in [1] of 9.71 µg/mL (≈ 21.7 µM).

Consider `Cc1ccc(C2CC(N(Cc3ccc(Br)c(Cl)c3)C3CCNCC3)C2)cc1` (stereo not drawn), for which the solubility (kinetic) in series [1] is 18.2 µg/mL (≈ 40.6 µM). In addition, the Papp in series [2] worked out at 806 ×10⁻⁶ cm/s.

For the compound `Cc1ccc(C2CC(N(Cc3ccc(Br)c(Cl)c3)C3CC4CCC(C3)N4)C2)cc1` (stereo not drawn), in series [1], the solubility (kinetic) stood at 11.1 µg/mL (≈ 23.4 µM).

Take `Cc1ccc(C2CC(N(Cc3ccc(Br)c(Cl)c3)C3C4CCC3CNC4)C2)cc1` (stereo not drawn): the kinetic solubility in series [1] is below 1 µg/mL.

On to `Cc1ccc(C2CC(N(Cc3ccc(Br)c(Cl)c3)C3CCC(N)CC3)C2)cc1` (stereo not drawn), for which the Papp in series [2] was determined as 818 ×10⁻⁶ cm/s.

On to `CC(=O)N1CCC(N(Cc2ccc(Br)c(Cl)c2)C2CC(c3ccc(C)cc3)C2)CC1` (stereo not drawn), for which the solubility (kinetic) in [1] is below 1 µg/mL. Besides, the permeability in series [2] is listed as 1909 10^-6 cm/s.

Compound `Cc1ccc(C2CC(N(Cc3ccc(Br)c(Cl)c3)C3CCCNCC3)C2)cc1` (stereo not drawn) returned a kinetic solubility in series [1] of 25.6 µg/mL (≈ 55.5 µM). The Papp in series [2] is 666 ×10⁻⁶ cm/s.

`Cc1ccc(C2CC(N(Cc3ccc(Br)c(Cl)c3)C3CCNC3)C2)cc1` (stereo not drawn) gave a kinetic solubility in series [1] of 23.2 µg/mL (≈ 53.5 µM).

Take `Cc1ccc(C2CC(N(Cc3ccc(Br)c(Cl)c3)C3CCN(C)CC3)C2)cc1` (stereo not drawn): the kinetic solubility in series [1] was 22.9 µg/mL (≈ 49.7 µM). In [2], the Papp amounted to 274 ×10⁻⁶ cm/s.

In the case of `Cc1ccc(C2CC(N(Cc3ccc(Br)c(Cl)c3)C3CC4CNC3C4)C2)cc1` (stereo not drawn), in [1], the solubility (kinetic) was 7.26 µg/mL (≈ 15.8 µM). The Papp in series [2] is 123 ×10⁻⁶ cm/s.

Turning to `Fc1ccc(C2CC(N(Cc3ccc(Br)c(Cl)c3)C3CCNCC3)C2)cc1` (stereo not drawn), in series [2], the Papp came out at 398 ×10⁻⁶ cm/s.

With `Cc1ccc([C@H]2C[C@H](N(Cc3ccc(Br)c(Cl)c3)C3CCNCC3)C2)cc1`, the solubility (kinetic) in series [1] turned out to be 1.09 µg/mL (≈ 2.43 µM). Moreover, the time of peak concentration (Tmax) in series [3] worked out at 1.5 h; in [5], 0.167 h; in series [10], 2 h. For the same compound, the Cmax worked out at 1850 ng/mL in [4] and 153 ng/mL in series [6]. The values for the Kp in [7] and in [8] were 35 and 11, respectively. In addition, the exposure AUC(0-t) in series [9] amounted to 9570 ng·h/mL; in series [11] it was 275 ng·h/mL; in series [12], 3000 ng·h/mL.

Compound `Clc1cccc(C2CC(N(Cc3ccc(Br)c(Cl)c3)C3CCNCC3)C2)c1` (stereo not drawn) came in with a kinetic solubility in series [1] of 4 µg/mL (≈ 8.54 µM).

Consider `Cc1ccc(C2CC(N(Cc3ccc(Br)c(Cl)c3)C3CCN(C(C)C)CC3)C2)cc1` (stereo not drawn), for which the solubility (kinetic) in series [1] is 15.4 µg/mL (≈ 31.4 µM). Also, the Papp in [2] is below 23.1 ×10⁻⁶ cm/s.

As to `Cc1cccc(C2CC(N(Cc3ccc(Br)c(Cl)c3)C3CCNCC3)C2)c1` (stereo not drawn), in series [2], the Papp worked out at 265 ×10⁻⁶ cm/s.

With `Clc1cc(CN(C2CCNCC2)C2CC(c3cccc(Br)c3)C2)ccc1Br` (stereo not drawn), in [1], the solubility (kinetic) amounted to 3.94 µg/mL (≈ 7.68 µM). The Papp in [2] stood at 14 ×10⁻⁶ cm/s.

In series [1], `Clc1cc(CN(C2CCNCC2)C2CC(c3ccc(Br)cc3)C2)ccc1Br` (stereo not drawn) showed a solubility (kinetic) of 3.32 µg/mL (≈ 6.48 µM). For the same compound, the Papp in series [2] was 32 ×10⁻⁶ cm/s. In addition, the Cmax was found to be 759 ng/mL in series [13] and 57400 ng/mL in series [18]. The Tmax turned out to be 24 h in series [14], 0.5 h in series [16] and 1 h in series [19]. For the same compound, the AUC(0-t) amounted to 793000 ng·h/mL in series [15], 10500 ng·h/mL in [20] and 56800 ng·h/mL in series [21]. The Kp stood at 54 in series [17] and 76 in [22].

For the compound `Cc1ccc(C2CC(N(Cc3ccc(Br)c(Cl)c3)C3CCCNC3)C2)cc1` (stereo not drawn), the solubility (kinetic) in series [1] was determined as 13.3 µg/mL (≈ 29.7 µM).

The solubility (kinetic) is the concentration staying in solution when a stock, usually in DMSO, is diluted into the medium. In general, Tmax refers to the time from dosing to the highest level. By Cmax is commonly meant the maximum level reached in the sampled fluid or tissue. As a reminder, the Kp is the ratio of the level in a tissue or fluid to that in plasma or blood. What is called AUC(0-t) is the area under the concentration-time curve up to a stated or last time point.
